According to patent US20230219986A1, “NOVEL AMINOPYRIMIDINE EGFR INHIBITOR” (QILU PHARMACEUTICAL CO., LTD., priority 2020, published 2023):
Like-named read-outs stand apart in the source and are kept apart here.

Tests used:
[1] = biological target: Ba/F3 L858R/T790M/C797S EGFR triple mutant cell line (Homo sapiens, UniProt P00533, T790M/C797S/L858R, cells depend on it); assay: Cell proliferation inhibition experiment (CellTiter-Glo), Ba/F3 L858R/T790M/C797S; assay type: cell-based; conditions: 72 hours, Cell Titer-Glo, read-out: Ba/F3 (L858R/T790M/C797S) IC50
Experimental: (§1) 3) 30 nL of gradient diluted compound was transferred into the 384-well experimental plate using Echo 550 (Labcyte) at a DMSO final concentration of 0.1%, and the culture plate was incubated in a cell incubator for 72 hours (37° C., 5% CO2).
(§2) 4) 30 μL of Cell Titer-Glo reagent was added to each well and left for 30 minutes at room temperature and protected from light.
(§3) 5) Envision microplate reader (PerkinElmer) detected chemiluminescence signals.
(§4) 6) GraphPad Prism 8 software was used for data analysis to obtain the IC50 of the compounds of the present disclosure and the positive control.

[2] = biological target: Ba/F3 De119/T790M/C797S EGFR triple mutant cell line (Homo sapiens, UniProt P00533, T790M/C797S, cells depend on it, form not given); assay: Cell proliferation inhibition experiment (CellTiter-Glo), Ba/F3 De119/T790M/C797S; assay type: cell-based; conditions: Ba/F3 Del19/T790M/C797S EGFR triple mutant cells, 72 hours, Cell Titer-Glo; read-out: Ba/F3 (Del19/T790M/C797S) IC50
Experimental: as §1, §2, §3, §4

[3] = tested on: EGFR wild-type cell line A431; assay: Cell proliferation inhibition experiment (CellTiter-Glo), A431; assay type: cell-based; conditions: A431 cells, Cell Titer-Glo, read-out: A431 EGFR WT IC50
Experimental: A431 cells, purchased from ATCC.
1) A431 cells were inoculated in a 384-well culture plate at a density of 800 cells per well, 30 μL per well, placed in a cell incubator, and cultured for 24 hours (37° C., 5% CO2).
as §1, §2, §3, §4

[4] = biological target: T1, L858R/T790M/C797S triple mutant EGFR (Homo sapiens, UniProt P00533, C797S/L858R/T790M); assay: Enzymology experiment in vitro (HTRF/FRET kinase activity), L858R/T790M/C797S triple mutant EGFR; assay type: biochemical; conditions: HTRF KinEASE-TK, read-out: EGFR (L858R/T790M/C797S) IC50
T1 construct: purchased Signalchem
Experimental: (§5) 1. Experimental Materials
(§6) HTRF KinEASE-TK kit detection reagent, purchased from Cisbio
(§7) 1) 10 nL of gradient diluted compound was transferred into a 384-well experimental plate using Echo 550 (Labcyte).
(§8) 2) 5 μL of 2×EGFR enzyme solution was added to the 384-well experimental plate and incubated at room temperature for 10 minutes.
(§9) 3) 5 μL of 2× substrate solution containing polypeptide and ATP was added to the 384-well experimental plate and incubated at room temperature for 40 minutes.
(§10) 4) 10 μL of detection solution containing EDTA, XL665-labeled streptavidin and Eu^3+-labeled antibody was added thereto and incubated at room temperature for 1 hour.

wild-type EGFR = biological target: T2, wild-type EGFR (Homo sapiens, UniProt P00533); assay: Enzymology experiment in vitro (HTRF/FRET kinase activity), wild-type EGFR; assay type: biochemical; conditions: HTRF KinEASE-TK, read-out: EGFR (WT) IC50
T2 construct: purchased Signalchem
Experimental: as §5, §6, §7, §8, §9, §10

T1 sequence (P00533 25-1210 T790M/C797S/L858R): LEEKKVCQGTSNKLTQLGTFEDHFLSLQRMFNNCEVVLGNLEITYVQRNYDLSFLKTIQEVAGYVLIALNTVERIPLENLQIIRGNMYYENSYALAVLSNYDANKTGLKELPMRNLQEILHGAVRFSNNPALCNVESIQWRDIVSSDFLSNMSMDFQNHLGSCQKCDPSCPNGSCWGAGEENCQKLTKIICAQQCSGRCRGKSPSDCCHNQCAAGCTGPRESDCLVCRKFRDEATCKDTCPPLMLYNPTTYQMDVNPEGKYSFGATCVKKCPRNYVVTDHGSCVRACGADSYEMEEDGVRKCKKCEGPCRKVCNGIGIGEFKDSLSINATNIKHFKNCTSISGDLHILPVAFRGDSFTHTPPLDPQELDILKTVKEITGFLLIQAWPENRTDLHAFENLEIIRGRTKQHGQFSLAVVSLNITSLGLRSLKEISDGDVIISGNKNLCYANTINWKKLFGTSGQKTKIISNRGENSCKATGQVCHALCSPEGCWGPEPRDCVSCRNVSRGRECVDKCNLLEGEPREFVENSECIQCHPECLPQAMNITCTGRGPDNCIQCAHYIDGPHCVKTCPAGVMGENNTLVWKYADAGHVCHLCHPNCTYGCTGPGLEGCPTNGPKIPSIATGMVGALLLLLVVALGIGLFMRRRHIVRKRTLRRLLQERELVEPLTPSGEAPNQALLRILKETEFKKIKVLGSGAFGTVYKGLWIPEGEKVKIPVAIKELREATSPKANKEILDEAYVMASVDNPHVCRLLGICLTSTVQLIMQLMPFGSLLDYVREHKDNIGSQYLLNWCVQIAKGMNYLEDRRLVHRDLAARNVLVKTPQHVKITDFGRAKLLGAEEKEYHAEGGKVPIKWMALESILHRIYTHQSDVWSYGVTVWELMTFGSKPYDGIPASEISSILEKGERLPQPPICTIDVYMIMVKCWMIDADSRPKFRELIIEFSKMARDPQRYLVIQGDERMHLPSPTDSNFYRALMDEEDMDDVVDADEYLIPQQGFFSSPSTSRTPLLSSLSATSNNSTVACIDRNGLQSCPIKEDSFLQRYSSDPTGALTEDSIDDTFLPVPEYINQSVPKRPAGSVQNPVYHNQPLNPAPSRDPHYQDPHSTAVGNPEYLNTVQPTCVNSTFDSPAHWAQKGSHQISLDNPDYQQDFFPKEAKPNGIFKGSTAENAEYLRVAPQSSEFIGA
Chain of Ba/F3 L858R/T790M/C797S EGFR triple mutant cell line (P00533 whole entry T790M/C797S/L858R): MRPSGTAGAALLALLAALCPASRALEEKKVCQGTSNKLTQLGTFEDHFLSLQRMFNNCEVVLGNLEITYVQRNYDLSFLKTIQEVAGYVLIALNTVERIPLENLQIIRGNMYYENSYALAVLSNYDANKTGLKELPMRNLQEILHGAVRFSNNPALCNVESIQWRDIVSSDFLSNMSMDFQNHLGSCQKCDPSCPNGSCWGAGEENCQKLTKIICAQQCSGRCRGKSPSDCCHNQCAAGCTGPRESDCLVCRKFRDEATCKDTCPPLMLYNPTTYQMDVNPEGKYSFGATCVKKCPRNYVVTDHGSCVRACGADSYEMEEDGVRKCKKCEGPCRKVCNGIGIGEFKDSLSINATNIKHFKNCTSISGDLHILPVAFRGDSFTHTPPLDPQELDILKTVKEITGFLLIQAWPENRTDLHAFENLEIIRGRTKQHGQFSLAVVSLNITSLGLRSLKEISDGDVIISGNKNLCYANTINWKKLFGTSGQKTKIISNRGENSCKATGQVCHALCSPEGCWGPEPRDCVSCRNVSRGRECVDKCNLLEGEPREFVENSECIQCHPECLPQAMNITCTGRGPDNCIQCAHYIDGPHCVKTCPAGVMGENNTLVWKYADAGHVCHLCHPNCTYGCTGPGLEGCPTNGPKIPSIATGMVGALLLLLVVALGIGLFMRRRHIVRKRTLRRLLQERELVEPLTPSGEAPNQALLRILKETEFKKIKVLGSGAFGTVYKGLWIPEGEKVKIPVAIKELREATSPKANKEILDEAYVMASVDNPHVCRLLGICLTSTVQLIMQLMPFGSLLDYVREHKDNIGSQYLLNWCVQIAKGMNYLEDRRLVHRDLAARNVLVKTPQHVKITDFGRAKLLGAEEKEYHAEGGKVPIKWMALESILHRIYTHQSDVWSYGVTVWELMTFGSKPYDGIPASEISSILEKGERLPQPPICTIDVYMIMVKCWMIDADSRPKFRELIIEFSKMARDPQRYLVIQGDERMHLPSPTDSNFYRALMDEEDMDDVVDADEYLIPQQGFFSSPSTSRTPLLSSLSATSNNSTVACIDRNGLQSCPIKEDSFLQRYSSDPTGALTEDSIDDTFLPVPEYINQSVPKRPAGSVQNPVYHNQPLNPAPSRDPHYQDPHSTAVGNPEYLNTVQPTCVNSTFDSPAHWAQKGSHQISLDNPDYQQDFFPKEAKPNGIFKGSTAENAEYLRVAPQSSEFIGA
T2 sequence (P00533 25-1210): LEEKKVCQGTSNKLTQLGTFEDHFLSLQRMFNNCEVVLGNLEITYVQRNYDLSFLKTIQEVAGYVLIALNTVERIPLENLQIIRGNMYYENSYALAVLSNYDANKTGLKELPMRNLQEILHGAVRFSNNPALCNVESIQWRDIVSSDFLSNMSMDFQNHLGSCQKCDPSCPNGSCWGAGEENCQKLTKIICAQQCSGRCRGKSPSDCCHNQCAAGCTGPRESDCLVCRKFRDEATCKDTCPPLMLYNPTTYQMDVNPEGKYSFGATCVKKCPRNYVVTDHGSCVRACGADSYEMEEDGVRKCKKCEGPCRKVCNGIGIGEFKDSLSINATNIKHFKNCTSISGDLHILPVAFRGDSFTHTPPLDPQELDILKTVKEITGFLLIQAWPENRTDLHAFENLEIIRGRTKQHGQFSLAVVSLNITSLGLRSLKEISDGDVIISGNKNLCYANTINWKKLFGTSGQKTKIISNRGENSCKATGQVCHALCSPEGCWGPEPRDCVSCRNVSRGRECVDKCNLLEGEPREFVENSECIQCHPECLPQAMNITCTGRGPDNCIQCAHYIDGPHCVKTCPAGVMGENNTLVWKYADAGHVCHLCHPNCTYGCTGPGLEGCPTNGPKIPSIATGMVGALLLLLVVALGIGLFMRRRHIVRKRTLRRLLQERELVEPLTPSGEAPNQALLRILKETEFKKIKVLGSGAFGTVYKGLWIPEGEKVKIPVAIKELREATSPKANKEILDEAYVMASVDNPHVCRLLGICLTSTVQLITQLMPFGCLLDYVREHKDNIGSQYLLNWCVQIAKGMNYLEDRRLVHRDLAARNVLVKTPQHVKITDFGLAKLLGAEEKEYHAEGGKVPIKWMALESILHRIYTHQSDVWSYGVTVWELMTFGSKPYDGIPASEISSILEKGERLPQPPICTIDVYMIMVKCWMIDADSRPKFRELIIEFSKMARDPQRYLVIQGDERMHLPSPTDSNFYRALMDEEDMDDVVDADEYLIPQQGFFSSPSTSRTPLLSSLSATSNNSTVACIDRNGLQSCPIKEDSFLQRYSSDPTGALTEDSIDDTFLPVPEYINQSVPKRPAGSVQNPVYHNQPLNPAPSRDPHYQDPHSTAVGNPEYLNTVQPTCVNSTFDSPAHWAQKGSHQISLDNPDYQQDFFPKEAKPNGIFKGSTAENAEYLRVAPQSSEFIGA
Chain of Ba/F3 De119/T790M/C797S EGFR triple mutant cell line (P00533 with tags, fused parts or gaps DEL746-750/T790M/C797S, form open): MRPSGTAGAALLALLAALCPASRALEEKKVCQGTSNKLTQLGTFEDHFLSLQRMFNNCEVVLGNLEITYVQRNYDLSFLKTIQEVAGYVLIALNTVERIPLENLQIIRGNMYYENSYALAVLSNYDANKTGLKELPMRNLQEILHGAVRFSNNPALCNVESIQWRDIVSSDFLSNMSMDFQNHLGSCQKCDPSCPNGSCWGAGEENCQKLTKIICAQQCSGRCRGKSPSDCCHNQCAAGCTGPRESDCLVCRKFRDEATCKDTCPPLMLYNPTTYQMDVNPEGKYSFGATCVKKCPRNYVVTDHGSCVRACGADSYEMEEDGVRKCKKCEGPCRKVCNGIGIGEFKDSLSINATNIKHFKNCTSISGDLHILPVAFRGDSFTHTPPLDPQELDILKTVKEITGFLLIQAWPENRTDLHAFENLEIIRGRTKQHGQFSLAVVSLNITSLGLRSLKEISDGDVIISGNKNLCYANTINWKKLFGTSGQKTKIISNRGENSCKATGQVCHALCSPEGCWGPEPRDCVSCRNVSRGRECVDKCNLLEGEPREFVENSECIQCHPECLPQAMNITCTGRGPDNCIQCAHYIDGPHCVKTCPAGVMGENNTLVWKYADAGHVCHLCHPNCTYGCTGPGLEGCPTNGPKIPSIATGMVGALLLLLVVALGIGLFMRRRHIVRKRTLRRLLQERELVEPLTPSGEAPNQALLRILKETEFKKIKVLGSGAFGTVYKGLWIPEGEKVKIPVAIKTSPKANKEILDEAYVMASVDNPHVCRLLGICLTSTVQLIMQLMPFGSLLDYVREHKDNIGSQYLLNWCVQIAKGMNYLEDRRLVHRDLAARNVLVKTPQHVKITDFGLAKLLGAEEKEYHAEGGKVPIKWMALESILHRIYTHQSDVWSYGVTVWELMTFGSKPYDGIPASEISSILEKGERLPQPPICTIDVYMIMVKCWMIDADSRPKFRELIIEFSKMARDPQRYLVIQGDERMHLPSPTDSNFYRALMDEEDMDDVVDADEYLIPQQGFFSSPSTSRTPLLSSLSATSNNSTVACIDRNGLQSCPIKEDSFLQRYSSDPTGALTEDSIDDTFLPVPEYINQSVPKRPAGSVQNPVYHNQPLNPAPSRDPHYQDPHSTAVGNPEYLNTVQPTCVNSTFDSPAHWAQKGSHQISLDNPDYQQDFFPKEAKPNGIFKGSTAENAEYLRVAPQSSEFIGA

Row | GI50 [1] | GI50 [2] | IC50 ([3]; Homo sapiens, A-431, 72 h) | IC50 [4] | IC50 (wild-type EGFR) | IC50 ([3]; 72 hours) | SMILES | IC50 ([3]; Homo sapiens, A-431, 72 hours)
1 | 372 nM | 114 nM | 1390 nM |  |  |  | COc1c(Nc2ncc(Br)c(Nc3ccc4nccnc4c3P(C)(C)=O)n2)cc(-c2cnn(C)c2)c(N2CCOCC2)c1C [Compound 68, (6-((5-bromo-2-((2-methoxy-3-methyl-5-(1-methyl-1H-pyrazol-4-yl)-4-morpholinylphenyl)amino)pyrimidin-4-yl)amino)quinoxalin-5-yl)dimethylphosphine oxide] | 
2 | 11.7 nM | 6.71 nM | 67.2 nM |  |  |  | Cn1cc(-c2cc(Nc3ncc(Br)c(Nc4ccc5nccnc5c4P(C)(C)=O)n3)cc(F)c2N2CCOCC2)cn1 [compound 46] | 
3 | 6.03 nM | 3.02 nM | 51.1 nM |  |  |  | Cn1cc(-c2cc(Nc3ncc(Br)c(Nc4ccc5nccnc5c4P(C)(C)=O)n3)ccc2N2CCOCC2)cn1 [compound 48] | 
4 |  | 4.88 nM | 234 nM | 0.12 nM | 21.5 nM |  | CCn1cc(-c2cc(Nc3ncc(Br)c(Nc4ccc5nccnc5c4P(C)(C)=O)n3)c(OC)cc2N2CCOCC2)cn1 [compound 49] | 
5 | 195 nM | 73.6 nM | 3380 nM |  |  |  | COc1cc(N2CCOCC2)c(-c2cnn(C)c2)c(F)c1Nc1ncc(Br)c(Nc2ccc3nccnc3c2P(C)(C)=O)n1 [compound 62] | 
6 | 24.9 nM | 14.3 nM | 331 nM |  |  |  | COc1nc(N2CCOCC2)c(-c2cnn(C)c2)cc1Nc1ncc(C)c(Nc2ccc3nccnc3c2P(C)(C)=O)n1 [compound 63] | 
7 | 17.3 nM | 6.68 nM | 72.4 nM |  |  |  | COc1nc(N2CCN(C)CC2)c(-c2cnn(C)c2)cc1Nc1ncc(Br)c(Nc2ccc3nccnc3c2P(C)(C)=O)n1 [compound 65] | 
8 | 446 nM | 251 nM | 4390 nM |  |  |  | COc1cc(N2CCOCC2)c(-c2ccnn2C)cc1Nc1ncc(Br)c(Nc2ccc3nccnc3c2P(C)(C)=O)n1 [compound 90] | 
9 | 430 nM | 278 nM | 3550 nM |  |  |  | COc1cc(N2CCOCC2)c(-c2cncn2C)cc1Nc1ncc(Br)c(Nc2ccc3nccnc3c2P(C)(C)=O)n1 [compound 91] | 
10 | 40.9 nM | 15.7 nM | 96.7 nM |  |  |  | COc1c(Nc2ncc(Br)c(Nc3ccc4nccnc4c3P(C)(C)=O)n2)cc(-c2cnn(C)c2)c(N2CCC(N(C)C)CC2)c1F [compound 95] | 
11 | 6.2 nM | 2.87 nM | 29.1 nM |  |  |  | Cc1cc(Nc2ncc(Br)c(Nc3ccc4nccnc4c3P(C)(C)=O)n2)cc(-c2cnn(C)c2)c1N1CCOCC1 [compound 100, (6-((5-bromo-2-((3-methyl-5-(1-methyl-1H-pyrazol-4-yl)-4-morpholinylphenyl)amino)pyrimidin-4-yl)amino)quinoxalin-5-yl)dimethylphosphine oxide] | 
12 | 120 nM | 41 nM | 157 nM |  |  |  | COc1cc(N2CCNCC2)c(-c2cnn(C)c2)cc1Nc1ncc(Br)c(Nc2ccc3nccnc3c2P(C)(C)=O)n1 [compound 117] | 

The remaining lines, values behind:

Row | SMILES | GI50 [1] | GI50 [2] | IC50 ([3]; Homo sapiens, A-431, 72 h) | IC50 [4] | IC50 (wild-type EGFR) | IC50 ([3]; 72 hours) | IC50 ([3]; Homo sapiens, A-431, 72 hours)
13 | COc1cc(N2CCC(N3CCN(C)CC3)CC2)ccc1Nc1ncc(Cl)c(Nc2ccccc2P(C)(C)=O)n1 [Brigatinib, reference compound] | 320 nM | 103 nM |  |  |  |  | 771 nM
14 | CN1CCN(c2ncc(Nc3ncc(Br)c(Nc4ccc5nccnc5c4P(C)(C)=O)n3)cc2-c2cnn(C)c2)CC1 [Compound 70, (6-((5-bromo-2-((5-(1-methyl-1H-pyrazol-4-yl)-6-(4-methylpiperazin-1-yl)pyridin-3-yl)amino)pyrimidin-4-yl)amino)quinoxalin-5-yl)dimethylphosphine oxide] | 348 nM | 117 nM | 157 nM |  |  |  | 
15 | COc1cc(S(C)(=O)=O)c(-c2cnn(C)c2)cc1Nc1ncc(Br)c(Nc2ccc3nccnc3c2P(C)(C)=O)n1 [compound 44] |  | 93.5 nM | ≥ 5000 nM | 22 nM | 1560 nM |  | 
16 | COc1nc(N(C)CCN(C)C)c(-c2cnn(C)c2)cc1Nc1ncc(Br)c(Nc2ccc3nccnc3c2P(C)(C)=O)n1 [compound 45] |  | 7.65 nM | 102 nM |  |  |  | 
17 | CN1CCOc2c(Nc3ncc(Br)c(Nc4ccc5nccnc5c4P(C)(C)=O)n3)cc(-c3cnn(C)c3)cc21 [compound 47] |  | 4.31 nM | 126 nM | 0.37 nM | 20.5 nM |  | 
18 | COc1ccc(-n2ccnc2)cc1Nc1ncc(Br)c(Nc2ccc3nccnc3c2P(C)(C)=O)n1 [compound 50] |  | 34.1 nM | 508 nM |  |  |  | 
19 | CNC(=O)c1ccccc1Nc1nc(Nc2cc(-c3cnn(C)c3)c(N3CCOCC3)cc2OC)ncc1Br [compound 52] |  | 26.7 nM | 158 nM |  |  |  | 
20 | COc1cc(N2CCOCC2)c(-c2cnn(C)c2)cc1Nc1ncc(Br)c(Nc2ccccc2S(=O)(=O)C(C)C)n1 [compound 54] |  | 103 nM | 638 nM |  |  |  | 
21 | COc1cc(P(C)(C)=O)c(-c2cnn(C)c2)cc1Nc1ncc(Br)c(Nc2ccc3nccnc3c2P(C)(C)=O)n1 [compound 55] |  | 1230 nM | ≥ 5000 nM |  |  |  | 
22 | COc1cc(N2CCOCC2)c(C#N)cc1Nc1ncc(Br)c(Nc2ccc3nccnc3c2P(C)(C)=O)n1 [compound 59] |  | 26.2 nM | 345 nM |  |  |  | 
23 | COc1cc(N2CCOCC2)c(-c2cncnc2)cc1Nc1ncc(C)c(Nc2ccc3nccnc3c2P(C)(C)=O)n1 [compound 60] |  | 89.3 nM | 658 nM |  |  |  | 
24 | COc1cc(N2CCOCC2)c(-n2cccn2)cc1Nc1ncc(Br)c(Nc2ccc3nccnc3c2P(C)(C)=O)n1 [compound 61] | 794 nM | 312 nM | 6580 nM |  |  |  | 
25 | COc1cc(N2CCCCC2)c(-c2cnn(C)c2)cc1Nc1ncc(Br)c(Nc2ccc3nccnc3c2P(C)(C)=O)n1 [compound 66] | 10.8 nM | 3.04 nM | 575 nM |  |  |  | 
26 | COc1nc(N2CCC3(CC2)COC3)c(-c2cnn(C)c2)cc1Nc1ncc(Br)c(Nc2ccc3nccnc3c2P(C)(C)=O)n1 [compound 67] | 59.2 nM | 42.3 nM |  |  |  |  | 622 nM
27 | COc1cc(N2CCOCC2)c(-n2cc(C)cn2)cc1Nc1ncc(Br)c(Nc2ccc3nccnc3c2P(C)(C)=O)n1 [compound 73] | 536 nM | 326 nM | 3260 nM |  |  |  | 
28 | CN1CCC2(CC1)CCN(c1ccc(Nc3ncc(Br)c(Nc4ccc5nccnc5c4P(C)(C)=O)n3)cc1-c1cnn(C)c1)CC2 [compound 76] | 9.96 nM | 5.4 nM | 20.7 nM |  |  |  | 
29 | COc1cc(N2CCC(N(C)C)CC2)c(-c2cnn(C)c2)cc1Nc1ncc(Br)c(Nc2ccc3nccnc3c2P(C)(C)=O)n1 [compound 96] | 9.39 nM | 3.52 nM | 44.2 nM |  |  |  | 
30 | COc1cc(N2CCN(CCO)CC2)c(-c2cnn(C)c2)cc1Nc1ncc(Br)c(Nc2ccc3nccnc3c2P(C)(C)=O)n1 [compound 99] | 104 nM | 40.6 nM | 209 nM |  |  |  | 
31 | COc1cc(N2CCN(C)C(C)(C)C2)c(-c2cnn(C)c2)cc1Nc1ncc(Br)c(Nc2ccc3nccnc3c2P(C)(C)=O)n1 [compound 108] | 24.5 nM | 12.5 nM | 92.8 nM |  |  |  | 
32 | COc1cc(N2CC3(COC3)C2)c(-c2cnn(C)c2)cc1Nc1ncc(Br)c(Nc2ccc3nccnc3c2P(C)(C)=O)n1 [compound 109] | 62.8 nM | 46.3 nM | 547 nM |  |  |  | 
33 | COc1cc(N2CCC(C)(N)CC2)c(-c2cnn(C)c2)cc1Nc1ncc(Br)c(Nc2ccc3nccnc3c2P(C)(C)=O)n1 [compound 113] | 176 nM | 74.5 nM | 189 nM |  |  |  | 
34 | COc1cc(N2CCC(N3CCOCC3)CC2)c(-c2cnn(C)c2)cc1Nc1ncc(Br)c(Nc2ccc3nccnc3c2P(C)(C)=O)n1 [compound 129] | 2.71 nM | 0.72 nM |  | 0.27 nM |  | 86.2 nM | 
35 | COc1cc(C2=CCN(C)CC2)c(-c2cnn(C)c2)cc1Nc1ncc(Br)c(Nc2ccc3nccnc3c2P(C)(C)=O)n1 [compound 177] | 35 nM | 25.6 nM | 59.3 nM |  |  |  | 
36 | COc1cc(N2CCC(N3CCOCC3)CC2)c(-c2cnn(C)c2)cc1Nc1ncc(Br)c(Nc2ccc3nccnc3c2P(C)(C)=O)n1 [compound 210] | 7.23 nM | 4.42 nM |  | 0.11 nM |  | 275 nM | 
